We go through one compound from article PMC9521027 (ACS Omega, 2022).

SMILES strings stand for the structures. Substitutions are numbered along the chain they refer to.

Assay [1] has as its target T1, URAT1 K393R mutant (Homo sapiens, UniProt Q96S37, K393R).
T1 sequence (Q96S37 1-553 K393R): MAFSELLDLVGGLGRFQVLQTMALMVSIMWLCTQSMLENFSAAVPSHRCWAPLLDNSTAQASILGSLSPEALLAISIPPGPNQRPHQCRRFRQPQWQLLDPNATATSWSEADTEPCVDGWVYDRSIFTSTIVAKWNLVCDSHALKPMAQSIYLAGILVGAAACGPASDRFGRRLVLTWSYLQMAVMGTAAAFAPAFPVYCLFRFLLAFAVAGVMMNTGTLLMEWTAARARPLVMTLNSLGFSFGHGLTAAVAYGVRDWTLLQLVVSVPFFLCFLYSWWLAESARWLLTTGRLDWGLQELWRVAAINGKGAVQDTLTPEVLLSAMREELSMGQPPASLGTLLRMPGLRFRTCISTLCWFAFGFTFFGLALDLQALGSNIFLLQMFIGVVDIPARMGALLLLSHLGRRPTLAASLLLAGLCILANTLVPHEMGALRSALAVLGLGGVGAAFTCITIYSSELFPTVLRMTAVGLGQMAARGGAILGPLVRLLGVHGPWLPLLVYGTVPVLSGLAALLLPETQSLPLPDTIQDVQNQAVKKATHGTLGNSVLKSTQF
Kind of assay: 14C-uric acid binding assay with membrane protein. Particulars: 1 μM BM, 1 μM verinurad, 10 μM lesinurad, 20 μM probenecid, 30 min, 25 μM 14C-uric acid.

In assay [2] the target is T2, wild-type hURAT1 (Homo sapiens, UniProt Q96S37).
T2 sequence (Q96S37 1-553): T1 sequence (Q96S37 1-553 K393R) with R393K
Nature of the assay: cell-based.

The target of assay [3] is T3, URAT1 K393A mutant (Homo sapiens, UniProt Q96S37, K393A).
T3 sequence (Q96S37 1-553 K393A): T1 sequence (Q96S37 1-553 K393R) with R393A
Kind of assay: 14C-uric acid uptake assay in transfected HEK293 cells. Format: cell-based.

The target in assay [4] is T4, URAT1 K393D mutant (Homo sapiens, UniProt Q96S37, K393D).
T4 sequence (Q96S37 1-553 K393D): T1 sequence (Q96S37 1-553 K393R) with R393D
The description is as above. Format: cell-based.

Assay [5] has as its target T1, URAT1 K393R mutant. Described as above. Format: cell-based.
The target in assay [6] is T5, URAT1 K393H mutant (Homo sapiens, UniProt Q96S37, K393H).
T5 sequence (Q96S37 1-553 K393H): T1 sequence (Q96S37 1-553 K393R) with R393H
Kind of assay: 14C-uric acid binding assay with membrane protein. Particulars: 1 μM BM, 1 μM verinurad, 10 μM lesinurad, 20 μM probenecid, 30 min, 25 μM 14C-uric acid.

Assay [7] addresses T6, URAT1 K393E mutant (Homo sapiens, UniProt Q96S37, K393E).
T6 sequence (Q96S37 1-553 K393E): T1 sequence (Q96S37 1-553 K393R) with R393E
Nature of the assay: 14C-uric acid uptake assay in transfected HEK293 cells. Format: cell-based.

The target in assay [8] is T5, URAT1 K393H mutant. The assay is described as above. Format: cell-based.

As a reminder, the IC50 is the point on the concentration scale where inhibition reaches its midpoint. A low value points to greater potency in that assay. In the case of `CC(C)(Sc1ccncc1-c1ccc(C#N)c2ccccc12)C(=O)O` [verinurad], the “Effect of inhibitor on 14C-uric acid binding compared with WT group” value in assay [1] and in assay [6] was “similar” in each case. Besides, the IC50 was determined as 290 ± 120 nM in assay [2]; 420 ± 260 nM in assay [3]; 440 ± 210 nM in assay [4]; 310 ± 290 nM in assay [5]; 360 ± 220 nM in assay [7]; 490 ± 240 nM in assay [8].
